Literature values, collected in PubChem BioAssay AID1259409 (Chemical Carcinogenesis Research Information System (CCRIS), 2018).

Test system: rodent chemically induced tumor inhibition, incidence and multiplicity
Experiment: CCRIS tumor inhibitor studies
Conditions: Route [Inhibitor]: ORAL, Species: RAT

## CC(=O)OC/C=C(C)/C=C/C=C(C)/C=C/C1=C(C)CCCC1(C)C
Carcinogen: 7,12-DIMETHYLBENZ[A]ANTHRACENE, 57-97-6, Dose [Inhibitor]: 250 MG/KG DIET DAILY FOR 28 WK STARTING 2 WK BEFORE START OF CARCINOGEN TREATMENT AND CONTINUING FOR DURATION OF STUDY (, Strain/Sex: SPRAGUE-DAWLEY/FEMALE, Target Tissue: Type of Lesion: MAMMARY GLAND: TUMOR, Dose [Carcinogen]: 5 MG IN CORN OIL 1/WK FOR 3 WK, Promoter: NONE USED
  tumour outcome (control, treated, inhibition, significance): 90%, 47%, 48%, p<0.001
Carcinogen: 7,12-DIMETHYLBENZ[A]ANTHRACENE, 57-97-6, Dose [Inhibitor]: 328 MG/KG DIET DAILY FOR 20 WK STARTING 3 D AFTER CARCINOGEN TREATMENT (STUDY DURATION: 26 WK), Strain/Sex: SPRAGUE-DAWLEY/FEMALE, Target Tissue: Type of Lesion: MAMMARY GLAND: CARCINOMA, Dose [Carcinogen]: 5 MG/ML SESAME OIL ONCE AT 53 D OF AGE, Promoter: NONE USED
  tumour outcome (control, treated, inhibition, significance): 85%, 60%, 29%, not significant
Carcinogen: DIMETHYLBENZ[A]ANTHRACENE, 57-97-6, Dose [Inhibitor]: 0, 328 MG/KG DIET IN VEHICLE 2 MO PRIOR TO CARCINOGEN DOSE AND CONTINUED UNTIL CARCINOGEN ADMINISTRATION (STUDY DURATION, Strain/Sex: CD-1/FEMALE, Target Tissue: Type of Lesion: MAMMARY GLAND: ADENOCARCINOMA, Dose [Carcinogen]: 20 MG IN 1 ML SESAME OIL ONCE, Promoter: NONE USED
  tumour outcome (control, treated, inhibition, significance): 63%, 57%, 10%, not calculated
Carcinogen: DIMETHYLBENZ[A]ANTHRACENE, 57-97-6, Dose [Inhibitor]: 0, 328 MG/KG DIET IN VEHICLE 2 MO PRIOR TO CARCINOGEN DOSE AND CONTINUED UNTIL CARCINOGEN ADMINISTRATION (STUDY DURATION, Strain/Sex: CD-1/FEMALE, Target Tissue: Type of Lesion: MAMMARY GLAND: BENIGN TUMOR, Dose [Carcinogen]: 20 MG IN 1 ML SESAME OIL ONCE, Promoter: NONE USED
  tumour outcome (control, treated, inhibition, significance): 17%, 50%, -194%, p<0.05
Carcinogen: ETHYLNITROSOUREA, 759-73-9, Dose [Inhibitor]: 0, 300000 IU KG IN 1:20 (VOLUME: VOLUME) SUNFLOWER OIL IN DIET 5 D/WK FOR LIFE (STUDY DURATION: 319 D), Strain/Sex: ALBINO/MALE,FEMALE, Target Tissue: Type of Lesion: NERVOUS SYSTEM: SCHWANNOMA, Dose [Carcinogen]: 75 MG/KG IN SALINE BY INTRAVENOUS INJECTION ONCE 21 D AFTER CONCEPTION
  tumour outcome (control, treated, inhibition, significance): 37/89 (42%), 14/50 (28%), 33%, not calculated
Carcinogen: ETHYLNITROSOUREA, 759-73-9, Dose [Inhibitor]: 0, 300000 IU/KG IN 1:20 (VOLUME: VOLUME) SUNFLOWER OIL IN DIET 5 D/WK FOR LIFE (STUDY DURATION: 319 D), Strain/Sex: ALBINO/MALE,FEMALE, Target Tissue: Type of Lesion: BRAIN: GLIOMA OR ASTROCYTOMA, Dose [Carcinogen]: 75 MG/KG IN SALINE BY INTRAVENOUS INJECTION ONCE 21 D AFTER CONCEPTION
  tumour outcome (control, treated, inhibition, significance): 54/89 (61%), 38/50 (76%), -25%, not calculated
Carcinogen: ETHYLNITROSOUREA, 759-73-9, Dose [Inhibitor]: 0, 300000 IU/KG IN 1:20 (VOLUME: VOLUME) SUNFLOWER OIL IN DIET 5 D/WK FOR LIFE (STUDY DURATION: 319 D), Strain/Sex: ALBINO/MALE,FEMALE, Target Tissue: Type of Lesion: KIDNEY: MESENCHYMAL TUMOR OR ADENOCARCINOMA, Dose [Carcinogen]: 75 MG/KG IN SALINE BY INTRAVENOUS INJECTION ONCE 21 D AFTER CONCEPTION
  tumour outcome (control, treated, inhibition, significance): 33/89 (37%), 14/50 (28%), 24%, not calculated
Carcinogen: ETHYLNITROSOUREA, 759-73-9, Dose [Inhibitor]: 0, 300000 IU/KG IN 1:20 (VOLUME: VOLUME) SUNFLOWER OIL IN DIET 5 D/WK FOR LIFE (STUDY DURATION: 319 D), Strain/Sex: ALBINO/MALE,FEMALE, Target Tissue: Type of Lesion: SPINAL CORD: TUMOR, Dose [Carcinogen]: 75 MG/KG IN SALINE BY INTRAVENOUS INJECTION ONCE 21 D AFTER CONCEPTION
  tumour outcome (control, treated, inhibition, significance): 55/89 (62%), 26/50 (52%), 16%, not calculated
Carcinogen: METHYLNITROSOUREA, 684-93-5, Dose [Inhibitor]: 0, 328 MG/KG DIET IN VEHICLE 2 MO PRIOR TO CARCINOGEN DOSE AND CONTINUED UNTIL CARCINOGEN ADMINISTRATION (STUDY DURATION, Strain/Sex: CD-1/FEMALE, Target Tissue: Type of Lesion: MAMMARY GLAND: ADENOCARCINOMA, Dose [Carcinogen]: 50 MG/KG BW ONCE, Promoter: NONE USED
  tumour outcome (control, treated, inhibition, significance): 57%, 72%), -26%, not calculated
Carcinogen: METHYLNITROSOUREA, 684-93-5, Dose [Inhibitor]: 0, 328 MG/KG DIET IN VEHICLE 2 MO PRIOR TO CARCINOGEN DOSE AND CONTINUED UNTIL CARCINOGEN ADMINISTRATION (STUDY DURATION, Strain/Sex: CD-1/FEMALE, Target Tissue: Type of Lesion: MAMMARY GLAND: BENIGN TUMOR, Dose [Carcinogen]: 50 MG/KG BW ONCE, Promoter: NONE USED
  tumour outcome (control, treated, inhibition, significance): 10%, 21%, -110%, not calculated
